{"source": "patent US10670576B2", "about": "“Device and method for measuring impedance in organotypic tissues” (Universität Leipzig, priority 2008, dated 2020)", "tested_on": "hippocampal slice cultures", "test": "Impedance measurement (TIECIR) of organotypic hippocampal slice cultures after induction of tau-hyperphosphorylation", "type": "cell-based", "settings": "1 μM, hippocampal slices of 8-9 day old rats, 7 days in culture, 100 Hz to 1 MHz, 10 mV, stable for 9 hours before application, remained small within the next seven hours", "procedure": "The impedance changes caused by tau-hyperphosphorylation (FIG. 11) of hippocampal slices that were prepared from 8-9 day old rats were measured using the device according to the present invention. Six to eight hippocampal slices of 400 μm thickness were places on a aluminiumoxyd membrane (0.02 μm pore size) of a 6-well recording chamber and cultured for 7 days in 50% minimum essential media, 25% Hank's media, and 25% horse serum supplemented with L-glutamine and antibiotics. Impedance recording was performed by using a Agilent 4294A impedance analyser (Agilent Technologies Deutschland GmbH, Germany) in combination with a multiplexer (NI-SCXI-1153, National Instruments, USA).\n24 hours before impedance measurement was carried out, medium replaced by fresh culture medium. The impedance was recorded in a frequency range of 100 Hz to 1 MHz by applying a voltage of 10 mV across a large top electrode and 60 substrate integrated bottom electrodes of 30 μm in diameter.\nFor measuring hippocampal slice cultures, the TIECIR method was used. Organotypic slice cultures were transiently covered with medium during impedance measurement, which usually takes less than 30 seconds for a single bottom electrode. […]", "data": [{"smiles": "C=C1[C@@H](O)[C@@H]2O[C@]3(CC[C@H](/C=C/[C@@H](C)[C@@H]4CC(C)=C[C@@]5(O[C@H](C[C@@](C)(O)C(=O)O)CC[C@H]5O)O4)O3)CC[C@H]2O[C@@H]1[C@@H](O)C[C@H](C)[C@H]1O[C@@]2(CCCCO2)CC[C@H]1C", "note": "[ocadaic acid]", "values": [{"measurement": "normalized impedance (normalized against non-covered membrane)", "value": 10, "unit": "%"}]}]}
